pKi: −log10 of the molar value.
Assays:
PSMA = molecular target: T1, PSMA (Homo sapiens, UniProt Q04609); test: fluorescence-based PSMA inhibition assay (NAAG hydrolysis, LNCaP cell lysates, Amplex Red); type: biochemical; settings: for pKi: PSMA inhibitory activity, Cheng-Prusoff conversion
T1 construct: endogenous in cells; host or cells: LNCaP cell lysate
Experimental: PSMA Inhibition. […] Briefly, lysates of LNCaP cell extracts (25 μL) were incubated with the inhibitor (12.5 μL) in the presence of 4 μM NAAG (12.5 μL) for 120 min. The amount of glutamate released upon hydrolysis of NAAG was measured by incubating with a working solution (50 μL) of the Amplex Red Glutamic Acid Kit (Life Technologies, Grand Island, N.Y.) for 60 min. Fluorescence was measured with a VICTOR3V multilabel plate reader (Perkin Elmer Inc., Waltham, Mass.) with excitation at 530 nm and emission at 560 nm. […] Assays were performed in triplicate. Enzyme inhibitory constants (Ki values) were generated using the Cheng-Prusoff conversion. Data analysis was performed using GraphPad Prism version 4.00 for Windows (GraphPad Software, San Diego, Calif.).
PSMA inhibition constant (Ki) values for 1-3 were determined using a fluorescence-based PSMA inhibition assay.

[1] = test system: PSMA+PIP and PSMA-flu tumors in a male SCID mouse; settings: 44.4 MBq (1.2 mCi) intravenously, imaged repeatedly over an eight day period

T1 sequence (Q04609 whole entry): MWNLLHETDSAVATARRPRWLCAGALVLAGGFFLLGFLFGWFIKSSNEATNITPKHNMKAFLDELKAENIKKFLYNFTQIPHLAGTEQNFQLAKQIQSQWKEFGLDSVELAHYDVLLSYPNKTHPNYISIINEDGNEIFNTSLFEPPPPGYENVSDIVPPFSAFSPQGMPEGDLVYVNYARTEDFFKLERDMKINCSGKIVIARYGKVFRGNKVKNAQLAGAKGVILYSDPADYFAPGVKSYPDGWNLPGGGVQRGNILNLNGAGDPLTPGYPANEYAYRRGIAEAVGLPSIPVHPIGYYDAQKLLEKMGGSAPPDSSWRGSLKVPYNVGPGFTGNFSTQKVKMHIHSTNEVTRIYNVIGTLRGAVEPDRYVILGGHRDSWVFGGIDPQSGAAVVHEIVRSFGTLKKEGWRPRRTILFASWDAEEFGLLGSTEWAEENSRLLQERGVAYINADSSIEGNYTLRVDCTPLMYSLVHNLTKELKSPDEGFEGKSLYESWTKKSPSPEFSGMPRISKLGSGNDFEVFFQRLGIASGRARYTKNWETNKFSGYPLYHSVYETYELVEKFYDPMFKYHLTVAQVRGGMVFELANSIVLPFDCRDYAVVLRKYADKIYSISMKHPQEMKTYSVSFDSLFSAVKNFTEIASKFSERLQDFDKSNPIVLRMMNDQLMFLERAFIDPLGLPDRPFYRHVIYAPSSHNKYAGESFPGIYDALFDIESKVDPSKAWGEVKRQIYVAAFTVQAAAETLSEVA

SMILES	pKi (PSMA)	increase in binding affinity (Ki) compared to monovalent 1 (PSMA; relative to compound 1) [fold]	radiotracer uptake on SPECT-CT [1]
NCCCCC(NC(=O)C(CCCCNC(=O)c1cn(CCCCC(NC(=O)CCCCCCC(=O)NCCCC[C@H](NC(=O)NC(CCC(=O)O)C(=O)O)C(=O)O)C(=O)O)nn1)NC(=O)c1nn[nH]c1CCCCC(NC(=O)CCCCCCC(=O)NCCCC[C@H](NC(=O)NC(CCC(=O)O)C(=O)O)C(=O)O)C(=O)O)C(=O)O (stereo partly drawn) [Compound 2, (7S)-26-(4-((1-((5-amino-1-carboxypenty 1)amino)-1-oxo-6-(1-((7S)-1,3,7,22-tetracarboxy-5,13,20-trioxo-4,6,12,21-tetraazahexacosan-26-yl) 1H-1,2,3-triazole-4-carboxamido)hexan-2-yl)carbamoyl)-1H-1,2,3-triazol-5-yl)-5,13,20-trioxo-4,6,12,21-tetraazahexacosane-1,3,7,22-tetracarboxylic acid]	10.00	5	–
O=C(O)CCC(NC(=O)N[C@@H](CCCCNC(=O)CCCCCCC(=O)NC(CCCCc1[nH]nnc1C(=O)NC(CCCCNC(=O)c1cn(CCCCC(NC(=O)CCCCCCC(=O)NCCCC[C@H](NC(=O)NC(CCC(=O)O)C(=O)O)C(=O)O)C(=O)O)nn1)C(=O)NC(CCCCNC(=O)CN1CCN(CC(=O)O)CCN(CC(=O)O)CCN(CC(=O)O)CC1)C(=O)O)C(=O)O)C(=O)O)C(=O)O (stereo partly drawn) [Compound 3, (7S)-26-(4-((1-((1-carboxy-5-(2-(4,7,10-tris(carboxymethyl)-1,4,7,10-tetraazacyclododecan-1-yl)acetamido)pentyl)amino)-1-oxo-6-(1-((7 S)-1,3,7,22-tetracarboxy-5,13,20-trioxo-4,6,12,21-tetraazahexacosan-26-yl)-1H-1,2,3-triazole-4-carboxamido)hexan-2-yl)carbamoyl)-1H-1,2,3-triazol-5-yl)-5,13,20-trioxo-4,6,12,21-tetraazahexacosane-1,3,7,22-tetracarboxylic acid]	10.10	–	–
O=C(O)CC[C@H](NC(=O)N[C@@H](CCCCNC(=O)CCCCCCC(=O)NC(CCCCn1cc(C(=O)NCCCCC(NC(=O)c2cn(CCCCC(NC(=O)CCCCCCC(=O)NCCCC[C@H](NC(=O)N[C@@H](CCC(=O)O)C(=O)O)C(=O)O)C(=O)O)nn2)C(=O)NC(CCCCNC(=O)CN2CCN(CC(=O)O)CCN(CC(=O)O)CCN(CC(=O)O)CC2)C(=O)O)nn1)C(=O)O)C(=O)O)C(=O)O.[111In+3] (stereo partly shown) [[^111In]3]	–	–	Intense radiotracer uptake was seen only in the PSMA+PIP tumors and in the kidneys
